Experimental data as given in ChEMBL document CHEMBL4382239, “Pharmaceutical significance of azepane based motifs for drug discovery: A critical review” (Eur J Med Chem, 2019).
Values after ≈ are worked out from the molar mass of the structure shown.

Legend:
Beta-galactosidase [1] = target: T1, Beta-galactosidase (Homo sapiens, UniProt P16278); assay: Inhibition of beta-galactosidase (unknown origin)
T1 sequence (P16278 whole entry): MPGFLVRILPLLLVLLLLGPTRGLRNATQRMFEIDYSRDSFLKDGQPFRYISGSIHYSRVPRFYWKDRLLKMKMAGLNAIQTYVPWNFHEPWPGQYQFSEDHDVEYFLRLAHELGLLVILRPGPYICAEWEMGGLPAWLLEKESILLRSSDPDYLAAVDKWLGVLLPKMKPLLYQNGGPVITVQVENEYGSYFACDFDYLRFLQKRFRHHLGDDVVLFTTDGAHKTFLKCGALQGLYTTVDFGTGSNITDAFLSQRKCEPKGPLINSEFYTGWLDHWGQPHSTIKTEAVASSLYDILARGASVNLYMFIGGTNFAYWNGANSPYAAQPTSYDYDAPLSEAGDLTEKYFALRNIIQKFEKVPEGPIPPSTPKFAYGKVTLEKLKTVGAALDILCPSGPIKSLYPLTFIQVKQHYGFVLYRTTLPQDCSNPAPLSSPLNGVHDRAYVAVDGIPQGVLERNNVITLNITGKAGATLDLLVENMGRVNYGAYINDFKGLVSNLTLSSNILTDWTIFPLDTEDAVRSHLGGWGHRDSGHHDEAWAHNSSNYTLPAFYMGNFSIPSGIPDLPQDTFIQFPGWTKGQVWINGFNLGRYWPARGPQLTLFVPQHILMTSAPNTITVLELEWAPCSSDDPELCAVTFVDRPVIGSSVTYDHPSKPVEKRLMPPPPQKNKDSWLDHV

Bacillus subtilis = assay: Antibacterial activity against Bacillus subtilis incubated for 16 to 18 hrs by serial plate dilution method; format: functional
Staphylococcus aureus [2] = assay: Antibacterial activity against Staphylococcus aureus ATCC 25923 incubated for 16 to 18 hrs by serial plate dilution method; format: functional
Shigella dysenteriae = assay: Antibacterial activity against Shigella dysenteriae incubated for 16 to 18 hrs by serial plate dilution method; format: functional
Pseudomonas aeruginosa = assay: Antibacterial activity against Pseudomonas aeruginosa incubated for 16 to 18 hrs by serial plate dilution method; format: functional
Salmonella typhi = assay: Antibacterial activity against […] incubated for 16 to 18 hrs by serial plate dilution method; format: functional, Salmonella enterica subsp. enterica serovar Typhi; details: Salmonella enterica
Escherichia coli = assay: Antibacterial activity against Escherichia coli DH52 incubated for 16 to 18 hrs by serial plate dilution method; format: functional
Micrococcus luteus = assay: Antibacterial activity against Micrococcus luteus ATCC 4698 incubated for 16 to 18 hrs by serial plate dilution method; format: functional
Rattus norvegicus = assay: Anticonvulsant activity in Wistar rat assessed as protection against MES-induced seizures at 15 mg/kg dosed via gastric tube; format: functional
Beta-galactosidase [3] = target: T2, Beta-galactosidase (Aspergillus oryzae, UniProt B7VU80); assay: Inhibition of Aspergillus oryzae beta-galactosidase
T2 sequence (B7VU80 whole entry): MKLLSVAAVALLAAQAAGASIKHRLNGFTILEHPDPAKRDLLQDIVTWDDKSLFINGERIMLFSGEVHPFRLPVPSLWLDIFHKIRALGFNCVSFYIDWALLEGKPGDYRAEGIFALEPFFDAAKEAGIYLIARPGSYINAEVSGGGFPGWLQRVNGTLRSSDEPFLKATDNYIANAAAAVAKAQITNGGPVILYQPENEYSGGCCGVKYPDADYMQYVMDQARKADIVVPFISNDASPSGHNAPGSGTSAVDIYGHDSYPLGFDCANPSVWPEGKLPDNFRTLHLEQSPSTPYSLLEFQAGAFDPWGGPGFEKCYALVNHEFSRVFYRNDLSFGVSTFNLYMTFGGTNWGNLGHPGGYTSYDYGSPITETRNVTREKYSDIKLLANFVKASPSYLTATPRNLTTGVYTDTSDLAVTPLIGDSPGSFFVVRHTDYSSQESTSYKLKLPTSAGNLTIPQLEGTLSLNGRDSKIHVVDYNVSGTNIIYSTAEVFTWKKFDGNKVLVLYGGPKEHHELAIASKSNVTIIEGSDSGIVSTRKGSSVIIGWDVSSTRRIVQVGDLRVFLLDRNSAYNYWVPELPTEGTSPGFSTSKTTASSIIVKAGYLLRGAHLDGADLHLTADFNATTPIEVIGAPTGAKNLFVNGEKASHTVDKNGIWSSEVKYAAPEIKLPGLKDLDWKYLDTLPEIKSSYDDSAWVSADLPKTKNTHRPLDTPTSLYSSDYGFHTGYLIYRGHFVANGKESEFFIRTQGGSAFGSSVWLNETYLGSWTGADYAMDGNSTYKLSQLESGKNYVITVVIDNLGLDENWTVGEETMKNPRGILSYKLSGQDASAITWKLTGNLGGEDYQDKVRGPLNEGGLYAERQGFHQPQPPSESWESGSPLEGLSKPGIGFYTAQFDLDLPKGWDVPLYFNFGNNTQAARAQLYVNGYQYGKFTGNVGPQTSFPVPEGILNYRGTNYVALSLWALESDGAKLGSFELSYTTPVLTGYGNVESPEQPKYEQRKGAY

Alpha-galactosidase = Alpha-galactosidase (Coffea arabica, UniProt Q42656); assay: Inhibition of green coffee bean alpha-galactosidase
Chain of Alpha-galactosidase (Q42656 whole entry): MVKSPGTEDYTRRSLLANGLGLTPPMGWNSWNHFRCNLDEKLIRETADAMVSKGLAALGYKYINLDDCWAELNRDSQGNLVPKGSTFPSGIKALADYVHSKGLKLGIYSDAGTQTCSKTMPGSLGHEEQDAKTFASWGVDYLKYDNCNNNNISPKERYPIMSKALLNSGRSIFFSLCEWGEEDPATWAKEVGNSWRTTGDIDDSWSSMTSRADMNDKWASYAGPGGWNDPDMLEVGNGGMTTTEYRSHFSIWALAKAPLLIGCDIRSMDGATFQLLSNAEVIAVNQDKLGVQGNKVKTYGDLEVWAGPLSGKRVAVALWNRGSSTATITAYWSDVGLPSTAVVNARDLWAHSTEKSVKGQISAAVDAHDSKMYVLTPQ

[4] = Inhibition of 6His-tagged Mycobacterium tuberculosis inorganic pyrophosphatase using tetrasodium PPi as substrate after 8 mins by malachite green dye-based colorimetric analysis
[5] = Competitive inhibition of bovine epididymis alpha-L-fucosidase; set-up: species or system Bos taurus
Bos taurus = species on record: Bos taurus; assay: Competitive inhibition of bovine epididymis alpha-L-fucosidase at 1 mM relative to control
[6] = target: Protein farnesyltransferase (Homo sapiens, UniProt P49354+P49356); assay: Inhibition of human recombinant FTase using [3H]FPP as substrate after 15 mins by scintillation counting analysis; format: protein-complex assay
Staphylococcus aureus [7] = assay: Antibacterial activity against Staphylococcus aureus; format: functional
Prunus dulcis = assay: Competitive inhibition of almond beta-glucosidase at 1 mM relative to control
[8] = Competitive inhibition of almond beta-glucosidase; set-up: species or system Prunus dulcis
HT-29 = assay: Cytotoxicity against human HT-29 cells; format: functional
MCF7 = assay: Cytotoxicity against human MCF7 cells; format: functional
HCT-116 = assay: Cytotoxicity against human HCT116 cells; format: functional

**Q.** For `CCCC[C@@H]1C[C@@H](O)[C@@H](O)[C@@H](O)CN1`, which IC50 (Beta-galactosidase [1]) is on record?
**A.** Its IC50 is 3 µM.

**Q.** With `COC(=O)C1CCCCN(c2ccc(Cl)cc2)C1C(=O)OC` (stereo not drawn) as the compound, how does the MIC (Bacillus subtilis) read?
**A.** The MIC was 2 to 32 mg/L (≈ 6.14 to 98.2 µM).

**Q.** And the MIC (Staphylococcus aureus [2])?
**A.** Its MIC is 2 to 32 mg/L (≈ 6.14 to 98.2 µM).

**Q.** What about the MIC (Shigella dysenteriae) of the same compound?
**A.** Its MIC is 2 to 32 mg/L (≈ 6.14 to 98.2 µM).

**Q.** What about the MIC (Pseudomonas aeruginosa) of the same compound?
**A.** Its MIC is 2 to 32 mg/L (≈ 6.14 to 98.2 µM).

**Q.** What about the MIC (Salmonella typhi) of the same compound?
**A.** The MIC was 2 to 32 mg/L (≈ 6.14 to 98.2 µM).

**Q.** And the MIC (Escherichia coli)?
**A.** Its MIC is 2 to 32 mg/L (≈ 6.14 to 98.2 µM).

**Q.** What about the MIC (Micrococcus luteus) of the same compound?
**A.** The MIC was 2 to 32 mg/L (≈ 6.14 to 98.2 µM).

**Q.** With `NC(=O)N1c2ccccc2C/C(=N\O)c2ccccc21` as the compound, how does the Activity (Rattus norvegicus) read?
**A.** Its Activity is 90%.

**Q.** With `O=C(O)C[C@@H]1NC[C@H](O)[C@H](O)[C@H](O)[C@H]1O` as the compound, how does the IC50 (Beta-galactosidase [3]) read?
**A.** The IC50 was 279 µM.

**Q.** Which Ki (Alpha-galactosidase) does the source give for `OC[C@H]1NC[C@H](O)[C@H](O)[C@@H](O)[C@@H]1O` here?
**A.** Its Ki is 2.2 µM.

**Q.** With `CN(C)c1nc(-c2cccn2-c2ccccc2)nc(N(C)C)n1` as the compound, how does the IC50 [4] read?
**A.** Its IC50 is 540 µM.

**Q.** For `CCCCN(CCCC)c1nc(-c2cccn2CCc2ccccc2)nc(N2CCCCCC2)n1`, which IC50 [4] is on record?
**A.** The IC50 was 23 µM.

**Q.** For `O=C(O)C[C@H]1NC[C@@H](O)[C@H](O)[C@H](O)[C@H]1O`, which IC50 (Beta-galactosidase [3]) is on record?
**A.** The IC50 was 21 µM.

**Q.** Which IC50 (Beta-galactosidase [3]) does the source give for `O=C(O)C[C@H]1NC[C@@H](O)[C@@H](O)[C@H](O)[C@H]1O` here?
**A.** The IC50 was 215 µM.

**Q.** For `O=C(O)[C@H]1CNC[C@@H](O)[C@H](O)[C@H]1O`, which Ki [5] is on record?
**A.** The Ki was 41 µM.

**Q.** What about the inhibition (Bos taurus) of the same compound?
**A.** Its inhibition is 99%.

**Q.** With `CCC1CCCN(C)C(=O)[C+]1c1cccc(Oc2cc(C(C)(N)c3cncn3C)ccc2C#N)c1` (stereo not drawn) as the compound, how does the IC50 [6] read?
**A.** The IC50 was 0.06 nM.

**Q.** With `NC[C@H]1O[C@H](OC2C[C@H](CO)NCC[C@@H]2N)[C@H](N)[C@@H](O)[C@@H]1O` (stereo partly drawn) as the compound, how does the MIC (Staphylococcus aureus [7]) read?
**A.** Its MIC is 64 mg/L (≈ 200 µM).

**Q.** With `NC[C@H]1O[C@H](O[C@H]2C[C@H](CO)NCC[C@H]2N)[C@H](N)[C@@H](O)[C@@H]1O` as the compound, how does the MIC (Staphylococcus aureus [7]) read?
**A.** Its MIC is 32 mg/L (≈ 99.9 µM).

**Q.** For `c1ccc(-n2cccc2-c2nc(N3CC3)nc(N3CC3)n2)cc1`, which IC50 [4] is on record?
**A.** Its IC50 is 130 µM.

**Q.** With `C[C@@H]1CNC[C@@H](O)[C@H](O)[C@H]1O` as the compound, how does the inhibition (Prunus dulcis) read?
**A.** The inhibition was 100%.

**Q.** And the Ki [8]?
**A.** The Ki was 2.5 µM.

**Q.** For `CC(C)O[C@H]1[C@H](OC(C)C)[C@H](O)CN(Cc2ccc(OCCCOc3ccc(CN4C[C@@H](O)[C@@H](OC(C)C)[C@H](OC(C)C)[C@H](O)C4)cc3)cc2)C[C@H]1O`, which GI50 (HT-29) is on record?
**A.** The GI50 was 23 µM.

**Q.** What about the GI50 (MCF7) of the same compound?
**A.** Its GI50 is 24 µM.

**Q.** What about the GI50 (HCT-116) of the same compound?
**A.** The GI50 was 6 µM.

**Q.** With `COC(=O)C1CCCCN(c2ccccn2)C1C(=O)OC` (stereo not drawn) as the compound, how does the MIC (Bacillus subtilis) read?
**A.** Its MIC is 1 to 16 mg/L (≈ 3.42 to 54.7 µM).

**Q.** What about the MIC (Staphylococcus aureus [2]) of the same compound?
**A.** The MIC was 1 to 16 mg/L (≈ 3.42 to 54.7 µM).

**Q.** And the MIC (Shigella dysenteriae)?
**A.** The MIC was 1 to 16 mg/L (≈ 3.42 to 54.7 µM).

**Q.** And the MIC (Pseudomonas aeruginosa)?
**A.** The MIC was 1 to 16 mg/L (≈ 3.42 to 54.7 µM).

**Q.** And the MIC (Salmonella typhi)?
**A.** The MIC was 1 to 16 mg/L (≈ 3.42 to 54.7 µM).

**Q.** What about the MIC (Escherichia coli) of the same compound?
**A.** The MIC was 1 to 16 mg/L (≈ 3.42 to 54.7 µM).

**Q.** And the MIC (Micrococcus luteus)?
**A.** Its MIC is 1 to 16 mg/L (≈ 3.42 to 54.7 µM).
